Molecules are shown by their SMILES.

The results in this text go back to ChEMBL document CHEMBL3272022, “Analogs of luteinizing hormone-releasing hormone with increased biological activity produced by D-amino acid substitutions in position 6” (1976).

In assay [1] the test system is Rattus norvegicus. The experiment in a line: Induction of luteinizing hormone release in immature male rat at 100 ng, sc measured after 15 mins to 6 hrs post dose by RIA relative to LH-RH.
The test system of assay [2] is Rattus norvegicus. Put plainly: Induction of FSH release in immature male rat at 100 ng, sc measured after 15 mins to 6 hrs post dose by RIA relative to LH-RH.
Assay [3] concerns Rattus norvegicus. Put plainly: Induction of luteinizing hormone release in ovariectomized estrogen/progesterone-treated rat at 50 ng, sc measured at 60 mins post dose by RIA (reference value: 6.0+/- 0.4 ng/ml). In kind it is functional.
For assay [4], the system named is Rattus norvegicus. The experiment in a line: Induction of luteinizing hormone release in ovariectomized estrogen/progesterone-treated rat at 10 ng, sc measured at 60 mins post dose by RIA (reference value: 6.0+/- 0.4 ng/ml). In kind it is functional.
Assay [5] deals with Rattus norvegicus. The experiment in a line: Induction of luteinizing hormone release in ovariectomized estrogen/progesterone-treated rat at 100 ng, sc measured after 30 mins post dose by RIA relative to LH-RH. In kind it is functional.
Assay [6] concerns Rattus norvegicus. The experiment in a line: Induction of luteinizing hormone release in ovariectomized estrogen/progesterone-treated rat at 50 ng, sc measured at 30 mins post dose by RIA (reference value: 5.3 +/- 1.5 ng/ml). In kind it is functional.
For assay [7], the system named is Rattus norvegicus. The experiment in a line: Induction of luteinizing hormone release in ovariectomized estrogen/progesterone-treated rat at 10 ng, sc measured at 30 mins post dose by RIA (reference value: 5.3 +/- 1.5 ng/ml). In kind it is functional.
Assay [8] has as its system Rattus norvegicus. Put plainly: Induction of luteinizing hormone release in ovariectomized estrogen/progesterone-treated rat at 1 ng, sc measured at 30 mins post dose by RIA (reference value: 5.3 +/- 1.5 ng/ml). In kind it is functional.
For assay [9], the system named is Rattus norvegicus. The experiment in a line: Induction of luteinizing hormone release in ovariectomized estrogen/progesterone-treated rat at 5 ng, sc measured at 60 mins post dose by RIA (reference value: 6.0+/- 0.4 ng/ml). In kind it is functional.
Assay [10] has as its system Rattus norvegicus. Put plainly: Induction of luteinizing hormone release in ovariectomized estrogen/progesterone-treated rat at 5 ng, sc measured at 30 mins post dose by RIA (reference value: 5.3 +/- 1.5 ng/ml). In kind it is functional.
The test system of assay [11] is Rattus norvegicus. Put plainly: Induction of luteinizing hormone release in ovariectomized estrogen/progesterone-treated rat at 1 ng, sc measured at 60 mins post dose by RIA (reference value: 6.0+/- 0.4 ng/ml). In kind it is functional.

For the molecule `CC(C)C[C@H](NC(=O)[C@@H](Cc1ccccc1)NC(=O)[C@H](Cc1ccc(O)cc1)NC(=O)[C@H](CO)NC(=O)[C@H](Cc1c[nH]c2ccccc12)NC(=O)[C@H](Cc1cnc[nH]1)NC(=O)[C@@H]1CCC(=O)N1)C(=O)N[C@@H](CCCNC(=N)N)C(=O)N1CCC[C@H]1C(=O)NCC(N)=O`, the Ratio in assay [1] turned out to be 10; in [2], 20.
Taken in the same sequence, the figures for `CC(C)C[C@H](NC(=O)[C@@H](C)NC(=O)[C@H](Cc1ccc(O)cc1)NC(=O)[C@H](CO)NC(=O)[C@H](Cc1c[nH]c2ccccc12)NC(=O)[C@H](Cc1cnc[nH]1)NC(=O)[C@@H]1CCC(=O)N1)C(=O)N[C@@H](CCCNC(=N)N)C(=O)N1CCC[C@H]1C(=O)NCC(N)=O` were 7 and 13.
For `CC(C)C[C@H](NC(=O)[C@@H](C)N(C)C(=O)[C@H](Cc1ccc(O)cc1)NC(=O)[C@H](CO)NC(=O)[C@H](Cc1c[nH]c2ccccc12)NC(=O)[C@H](Cc1cnc[nH]1)NC(=O)[C@@H]1CCC(=O)N1)C(=O)N[C@@H](CCCNC(=N)N)C(=O)N1CCC[C@H]1C(=O)NCC(N)=O`, the Activity in assay [3] was determined as 18.6 ng/mL; in assay [4], 8.9 ng/mL; in [6] it was 47.8 ng/mL; in assay [7], 22.9 ng/mL. Further, in [5], the Ratio stood at 0.1.
As for `CCNC(=O)[C@@H]1CCCN1C(=O)[C@H](CCCNC(=N)N)NC(=O)[C@H](CC(C)C)NC(=O)[C@@H](Cc1ccccc1)NC(=O)[C@H](Cc1ccc(O)cc1)NC(=O)[C@H](CO)NC(=O)[C@H](Cc1c[nH]c2ccccc12)NC(=O)[C@H](Cc1cnc[nH]1)NC(=O)[C@@H]1CCC(=O)N1`, the Ratio turned out to be 8 in [1] and 7 in assay [2].
As for `CC(C)C[C@H](NC(=O)[C@@H](CCC(=O)O)NC(=O)[C@H](Cc1ccc(O)cc1)NC(=O)[C@H](CO)NC(=O)[C@H](Cc1c[nH]c2ccccc12)NC(=O)[C@H](Cc1cnc[nH]1)NC(=O)[C@@H]1CCC(=O)N1)C(=O)N[C@@H](CCCNC(=N)N)C(=O)N1CCC[C@H]1C(=O)NCC(N)=O`, the Ratio worked out at 1.8 in assay [1] and 1.5 in assay [2].
In the case of `CCNC(=O)[C@@H]1CCCN1C(=O)[C@H](CCCNC(=N)N)NC(=O)[C@H](CC(C)C)NC(=O)[C@@H](Cc1c[nH]c2ccccc12)NC(=O)[C@H](Cc1ccc(O)cc1)NC(=O)[C@H](CO)NC(=O)[C@H](Cc1c[nH]c2ccccc12)NC(=O)[C@H](Cc1c[nH]cn1)NC(=O)[C@@H]1CCC(=O)N1` [DESLORELIN], the results for the Ratio in assay [1] and in assay [2] were 7 and 6, respectively.
Taken in the same sequence, the figures for `CCNC(=O)[C@@H]1CCCN1C(=O)[C@H](CCCNC(=N)N)NC(=O)[C@H](CC(C)C)NC(=O)[C@@H](CC(C)C)NC(=O)[C@H](Cc1ccc(O)cc1)NC(=O)[C@H](CO)NC(=O)[C@H](Cc1c[nH]c2ccccc12)NC(=O)[C@H](Cc1c[nH]cn1)NC(=O)[C@@H]1CCC(=O)N1` [LEUPROLIDE] were 15 and 11.
`CC(C)C[C@H](NC(=O)[C@@H](Cc1c[nH]c2ccccc12)NC(=O)[C@H](Cc1ccc(O)cc1)NC(=O)[C@H](CO)NC(=O)[C@H](Cc1c[nH]c2ccccc12)NC(=O)[C@H](Cc1c[nH]cn1)NC(=O)[C@@H]1CCC(=O)N1)C(=O)N[C@@H](CCCNC(=N)N)C(=O)N1CCC[C@H]1C(=O)NCC(N)=O` [TRIPTORELIN]: the Ratio in assay [1] was 13; in [2], 21.
As to `CC(C)C[C@H](NC(=O)CNC(=O)[C@H](Cc1ccc(O)cc1)NC(=O)[C@H](CO)NC(=O)[C@H](Cc1c[nH]c2ccccc12)NC(=O)[C@H](Cc1cnc[nH]1)NC(=O)[C@@H]1CCC(=O)N1)C(=O)N[C@@H](CCCNC(=N)N)C(=O)N1CCC[C@H]1C(=O)NCC(N)=O` [GONADORELIN], the Activity in assay [8] was 24.5 ng/mL; in assay [9], 15.4 ng/mL; in assay [10], 47 ng/mL; in [11] it was 9.6 ng/mL.
